Laboratory results reported in patent publication US10239869B2, “Sulfonamide compounds as voltage-gated sodium channel modulators” (LUPIN LIMITED, priority 2015, dated 2019).
pIC50: −log10 of the molar value. Where two headings read alike, the source gives them in different places.

Experiments:
Nav 1.7 = Nav 1.7 (Homo sapiens (Human), UniProt Q15858); assay: Inhibition of sodium channels, Red Membrane Potential Dye FLIPR assay, veratridine depolarization; type: cell-based; details: HEK-293 cells overexpressing the channel; read-out: Nav1.7 IC50
Nav 1.5 = Nav 1.5 (Homo sapiens (Human), UniProt Q14524); assay: as above; type: cell-based; details: HEK-293 cells overexpressing the channel; for inhibition at 10 µM: HEK-293 cells overexpressing Nav 1.5; for pIC50: read-out: Nav1.5 IC50; for IC50: read-out: Nav1.5 IC50 (bound given in μM)
Nav 1.5, sequence (Q14524 whole entry): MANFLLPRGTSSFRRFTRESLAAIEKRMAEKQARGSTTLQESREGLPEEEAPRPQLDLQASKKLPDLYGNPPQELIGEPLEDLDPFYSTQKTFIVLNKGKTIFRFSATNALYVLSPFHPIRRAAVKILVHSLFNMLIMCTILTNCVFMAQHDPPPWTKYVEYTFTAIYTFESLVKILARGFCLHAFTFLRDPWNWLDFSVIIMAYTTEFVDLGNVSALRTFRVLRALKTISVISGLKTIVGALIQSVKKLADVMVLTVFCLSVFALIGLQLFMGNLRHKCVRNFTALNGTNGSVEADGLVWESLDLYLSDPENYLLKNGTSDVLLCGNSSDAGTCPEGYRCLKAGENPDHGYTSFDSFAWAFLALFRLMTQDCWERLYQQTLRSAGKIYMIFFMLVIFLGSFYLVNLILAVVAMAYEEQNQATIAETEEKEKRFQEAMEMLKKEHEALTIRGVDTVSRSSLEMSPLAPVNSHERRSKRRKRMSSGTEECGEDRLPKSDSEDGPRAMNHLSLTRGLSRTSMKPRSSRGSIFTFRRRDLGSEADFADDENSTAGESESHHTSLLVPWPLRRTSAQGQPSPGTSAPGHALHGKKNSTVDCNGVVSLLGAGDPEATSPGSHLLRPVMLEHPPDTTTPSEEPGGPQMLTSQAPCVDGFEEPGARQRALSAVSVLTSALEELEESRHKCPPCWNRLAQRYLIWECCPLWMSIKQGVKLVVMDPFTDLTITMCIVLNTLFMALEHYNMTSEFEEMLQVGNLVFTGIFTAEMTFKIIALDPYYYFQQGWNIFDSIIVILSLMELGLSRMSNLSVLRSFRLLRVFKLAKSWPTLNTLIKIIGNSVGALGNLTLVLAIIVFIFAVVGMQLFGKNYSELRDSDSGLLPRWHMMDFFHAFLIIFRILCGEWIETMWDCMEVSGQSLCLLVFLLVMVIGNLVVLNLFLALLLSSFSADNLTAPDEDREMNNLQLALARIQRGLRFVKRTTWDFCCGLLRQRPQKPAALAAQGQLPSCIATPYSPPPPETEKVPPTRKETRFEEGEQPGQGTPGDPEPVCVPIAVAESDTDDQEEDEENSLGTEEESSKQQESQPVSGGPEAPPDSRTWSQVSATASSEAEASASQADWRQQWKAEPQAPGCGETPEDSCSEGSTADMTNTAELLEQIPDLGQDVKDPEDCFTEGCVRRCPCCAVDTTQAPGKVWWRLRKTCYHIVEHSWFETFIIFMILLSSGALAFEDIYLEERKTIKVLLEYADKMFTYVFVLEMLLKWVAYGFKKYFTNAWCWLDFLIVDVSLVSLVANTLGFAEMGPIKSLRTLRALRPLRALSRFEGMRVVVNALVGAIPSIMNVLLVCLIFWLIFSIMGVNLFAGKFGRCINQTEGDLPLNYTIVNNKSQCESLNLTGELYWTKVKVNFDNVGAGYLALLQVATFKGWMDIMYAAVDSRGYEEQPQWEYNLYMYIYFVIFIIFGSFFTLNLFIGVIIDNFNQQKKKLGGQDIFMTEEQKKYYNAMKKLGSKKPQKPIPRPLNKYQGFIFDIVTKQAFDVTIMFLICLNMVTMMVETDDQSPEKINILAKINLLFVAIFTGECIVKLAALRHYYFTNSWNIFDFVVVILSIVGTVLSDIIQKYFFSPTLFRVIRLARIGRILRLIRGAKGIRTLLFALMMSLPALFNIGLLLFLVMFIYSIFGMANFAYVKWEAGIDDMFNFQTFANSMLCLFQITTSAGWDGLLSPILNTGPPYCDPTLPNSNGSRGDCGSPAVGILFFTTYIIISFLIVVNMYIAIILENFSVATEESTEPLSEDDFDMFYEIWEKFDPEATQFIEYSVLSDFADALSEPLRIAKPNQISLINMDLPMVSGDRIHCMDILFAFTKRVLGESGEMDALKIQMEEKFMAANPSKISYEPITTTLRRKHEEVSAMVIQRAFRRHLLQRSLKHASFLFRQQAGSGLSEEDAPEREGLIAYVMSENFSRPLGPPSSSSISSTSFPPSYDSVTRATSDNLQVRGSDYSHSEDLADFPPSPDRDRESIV

Nav 1.7, sequence (Q15858 whole entry): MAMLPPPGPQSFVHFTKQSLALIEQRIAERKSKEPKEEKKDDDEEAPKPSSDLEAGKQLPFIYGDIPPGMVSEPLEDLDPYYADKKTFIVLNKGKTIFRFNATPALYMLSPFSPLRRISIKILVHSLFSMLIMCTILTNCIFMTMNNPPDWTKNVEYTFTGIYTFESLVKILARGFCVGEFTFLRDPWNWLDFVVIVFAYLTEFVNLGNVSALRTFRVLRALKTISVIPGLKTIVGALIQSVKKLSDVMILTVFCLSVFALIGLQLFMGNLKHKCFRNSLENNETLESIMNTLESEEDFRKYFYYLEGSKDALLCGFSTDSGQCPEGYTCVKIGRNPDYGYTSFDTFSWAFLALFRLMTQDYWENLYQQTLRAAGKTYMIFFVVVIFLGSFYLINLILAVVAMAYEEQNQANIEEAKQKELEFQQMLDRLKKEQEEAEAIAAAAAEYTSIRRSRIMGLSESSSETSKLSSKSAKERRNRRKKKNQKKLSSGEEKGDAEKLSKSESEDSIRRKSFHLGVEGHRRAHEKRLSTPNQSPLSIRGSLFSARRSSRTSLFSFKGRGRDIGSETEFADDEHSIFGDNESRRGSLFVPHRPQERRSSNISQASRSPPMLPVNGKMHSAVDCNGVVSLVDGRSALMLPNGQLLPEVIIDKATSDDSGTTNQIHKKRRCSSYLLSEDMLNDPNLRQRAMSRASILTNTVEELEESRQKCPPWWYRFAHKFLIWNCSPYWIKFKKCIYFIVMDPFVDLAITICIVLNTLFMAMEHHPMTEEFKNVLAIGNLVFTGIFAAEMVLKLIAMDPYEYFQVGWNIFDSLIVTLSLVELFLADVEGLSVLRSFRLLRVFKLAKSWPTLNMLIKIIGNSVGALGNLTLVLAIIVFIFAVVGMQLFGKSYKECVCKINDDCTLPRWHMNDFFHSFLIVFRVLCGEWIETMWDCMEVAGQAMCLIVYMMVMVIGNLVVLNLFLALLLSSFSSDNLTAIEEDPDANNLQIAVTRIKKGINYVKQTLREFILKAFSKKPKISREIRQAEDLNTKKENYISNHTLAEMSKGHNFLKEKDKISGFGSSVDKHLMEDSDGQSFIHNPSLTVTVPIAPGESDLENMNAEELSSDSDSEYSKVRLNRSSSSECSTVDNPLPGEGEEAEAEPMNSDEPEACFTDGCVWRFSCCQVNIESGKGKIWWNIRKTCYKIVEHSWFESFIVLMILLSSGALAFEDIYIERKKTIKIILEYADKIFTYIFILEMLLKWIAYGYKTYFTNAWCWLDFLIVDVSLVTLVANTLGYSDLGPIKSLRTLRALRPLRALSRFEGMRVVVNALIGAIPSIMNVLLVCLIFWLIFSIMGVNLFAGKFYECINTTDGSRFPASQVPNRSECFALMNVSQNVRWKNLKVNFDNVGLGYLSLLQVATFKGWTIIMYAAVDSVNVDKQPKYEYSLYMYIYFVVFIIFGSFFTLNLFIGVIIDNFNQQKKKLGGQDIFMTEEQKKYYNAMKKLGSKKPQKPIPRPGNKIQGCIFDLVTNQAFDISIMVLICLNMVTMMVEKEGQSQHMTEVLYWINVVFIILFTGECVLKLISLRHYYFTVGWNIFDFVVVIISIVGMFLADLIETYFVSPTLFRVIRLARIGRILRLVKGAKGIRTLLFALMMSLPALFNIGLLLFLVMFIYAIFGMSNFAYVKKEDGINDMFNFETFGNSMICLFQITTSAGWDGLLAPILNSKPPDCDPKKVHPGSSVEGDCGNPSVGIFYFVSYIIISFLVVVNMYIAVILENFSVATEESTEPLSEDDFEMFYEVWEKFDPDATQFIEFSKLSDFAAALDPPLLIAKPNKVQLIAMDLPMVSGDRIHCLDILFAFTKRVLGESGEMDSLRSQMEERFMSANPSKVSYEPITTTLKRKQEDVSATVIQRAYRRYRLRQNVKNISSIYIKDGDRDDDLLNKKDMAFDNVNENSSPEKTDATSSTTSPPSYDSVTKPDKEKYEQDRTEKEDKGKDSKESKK

Row | Compound | pIC50 (Nav 1.7) | inhibition at 10 µM (Nav 1.5) | pIC50 (Nav 1.5) | IC50 (Nav 1.5)
1 | O=S(=O)(Nc1cccc(F)n1)c1ccc2c(c1)OCC[C@@H]2c1ccc(C(F)(F)F)cc1-c1nccs1 (racemic) [Example 96, (R/S)—N-(6-fluoropyridin-2-yl)-4-(2-(thiazol-2-yl)-4-(trifluoromethyl)phenyl)chroman-7-sulfonamide] | 8.10 | 70% | – | –
2 | CCOc1ccc(-c2cc(C(F)(F)F)ccc2[C@H]2CCOc3cc(S(=O)(=O)Nc4ncccn4)ccc32)cn1 (racemic) [Example 103, (R/S)-4-(2-(6-ethoxypyridin-3-yl)-4-(trifluoromethyl)phenyl)-N-(pyrimidin-2-yl)chroman-7-sulfonamide] | 8.00 | – | 6.03 | –
3 | O=S(=O)(Nc1ncccn1)c1ccc2c(c1)OCC[C@@H]2c1ccc(C(F)(F)F)cc1Cl (racemic) [Example 104, (S/R)-4-(2-Chloro-4-(trifluoromethyl)phenyl)-N-(pyrimidin-2-yl)chroman-7-sulfonamide] | 6.74 | – | – | > 10 µM
4 | O=S(=O)(Nc1ncc(F)cn1)c1ccc2c(c1)OCC[C@@H]2c1ccc(C(F)(F)F)cc1Cl (racemic) [Example 105, (S/R)-4-(2-Chloro-4-(trifluoromethyl)phenyl)-N-(5-fluoropyrimidin-2-yl)chroman-7-sulfonamide] | 5.82 | – | – | > 10 µM
5 | O=S(=O)(Nc1ccncn1)c1ccc2c(c1)OCC[C@@H]2c1ccc(C(F)(F)F)cc1Cl (racemic) [Example 106, (S/R)-4-(2-Chloro-4-(trifluoromethyl)phenyl)-N-(pyrimidin-4-yl)chroman-7-sulfonamide] | 6.83 | – | – | > 10 µM
6 | O=S(=O)(Nc1cccnn1)c1ccc2c(c1)OCC[C@@H]2c1ccc(C(F)(F)F)cc1Cl (racemic) [Example 107, (S/R)-4-(2-Chloro-4-(trifluoromethyl)phenyl)-N-(pyridazin-3-yl)chroman-7-sulfonamide] | 6.64 | – | – | > 10 µM
7 | O=S(=O)(Nc1cccc(F)n1)c1ccc2c(c1)OCC[C@@H]2c1ccc(C(F)(F)F)cc1Cl (racemic) [Example 108, (S/R)-4-(2-chloro-4-(trifluoromethyl)phenyl)-N-(6-fluoropyridin-2-yl)chroman-7-sulfonamide] | 7.24 | – | 5.66 | –
8 | O=C1CCCN1c1cc(C(F)(F)F)ccc1[C@H]1CCOc2cc(S(=O)(=O)Nc3ncccn3)ccc21 (racemic) [Example 115, (R/S)-4-(2-(2-oxopyrrolidin-1-yl)-4-(trifluoromethyl)phenyl)-N-(pyrimidin-2-yl)chroman-7-sulfonamide] | 7.39 | – | – | > 10 µM
9 | O=C1CCCN1c1cc(C(F)(F)F)ccc1[C@H]1CCOc2cc(S(=O)(=O)Nc3ccncn3)ccc21 (racemic) [Example 116, (R/S)-4-(2-(2-oxopyrrolidin-1-yl)-4-(trifluoromethyl)phenyl)-N-(pyrimidin-4-yl)chroman-7-sulfonamide] | 5.71 | – | – | > 10 µM
10 | O=C1CCCN1c1cc(C(F)(F)F)ccc1[C@H]1CCOc2cc(S(=O)(=O)Nc3cccnn3)ccc21 (racemic) [Example 117, (R/S)-4-(2-(2-oxopyrrolidin-1-yl)-4-(trifluoromethyl)phenyl)-N-(pyridazin-3-yl)chromane-7-sulfonamide] | 6.97 | – | – | > 10 µM
11 | O=S(=O)(Nc1cccnn1)c1ccc2c(c1)OCC[C@@H]2c1ccc(C(F)(F)F)cc1N1CCOCC1 (racemic) [Example 122, (R/S)-4-(2-morpholino-4-(trifluoromethyl)phenyl)-N-(pyridazin-3-yl)chroman-7-sulfonamide] | 7.42 | 54% | – | –
12 | COCCOc1cc(C(F)(F)F)ccc1[C@H]1CCOc2cc(S(=O)(=O)Nc3ncc(F)cn3)ccc21 (racemic) [Example 126, (R/S)—N-(5-fluoropyrimidin-2-yl)-4-(2-(2-methoxyethoxy)-4-(trifluoromethyl)phenyl)chroman-7-sulfonamide] | 6.85 | – | – | > 10 µM
13 | COCCOc1cc(C(F)(F)F)ccc1[C@H]1CCOc2cc(S(=O)(=O)Nc3ccncn3)ccc21 (racemic) [Example 127, (R/S)-4-(2-(2-methoxyethoxy)-4-(trifluoromethyl)phenyl)-N-(pyrimidin-4-yl)chroman-7-sulfonamide] | 8.40 | 37% | – | –
14 | COCCOc1cc(C(F)(F)F)ccc1[C@H]1CCOc2cc(S(=O)(=O)Nc3cccnn3)ccc21 (racemic) [Example 128, (R/S)-4-(2-(2-methoxyethoxy)-4-(trifluoromethyl)phenyl)-N-(pyridazin-3-yl)chroman-7-sulfonamide] | 6.84 | 55% | – | –
15 | COCCOc1cc(C(F)(F)F)ccc1[C@H]1CCOc2cc(S(=O)(=O)Nc3cccc(F)n3)ccc21 (racemic) [Example 129, (R/S)—N-(6-fluoropyridin-2-yl)-4-(2-(2-methoxyethoxy)-4-(trifluoromethyl)phenyl)chroman-7-sulfonamide] | 7.80 | 62% | – | –
16 | COCCCOc1cc(C(F)(F)F)ccc1[C@H]1CCOc2cc(S(=O)(=O)Nc3ncc(F)cn3)ccc21 (racemic) [Example 132, (R/S)—N-(5-fluoropyrimidin-2-yl)-4-(2-(3-methoxypropoxy)-4-(trifluoromethyl)phenyl)chroman-7-sulfonamide] | 6.79 | – | – | > 10 µM
17 | COCCCOc1cc(C(F)(F)F)ccc1[C@H]1CCOc2cc(S(=O)(=O)Nc3cccnn3)ccc21 (racemic) [Example 133, (R/S)-4-(2-(3-methoxypropoxy)-4-(trifluoromethyl)phenyl)-N-(pyridazin-3-yl)chroman-7-sulfonamide] | 6.89 | 66% | – | –
18 | COCCCOc1cc(C(F)(F)F)ccc1[C@H]1CCOc2cc(S(=O)(=O)Nc3cccc(F)n3)ccc21 (racemic) [Example 134, (R/S)—N-(6-fluoropyridin-2-yl)-4-(2-(3-methoxypropoxy)-4-(trifluoromethyl)phenyl)chroman-7-sulfonamide] | 7.51 | – | 5.87 | –
19 | COCCc1cc(C(F)(F)F)ccc1[C@H]1CCOc2cc(S(=O)(=O)Nc3ncccn3)ccc21 (racemic) [Example 135, (R/S)-4-(2-(2-methoxyethyl)-4-(trifluoromethyl)phenyl)-N-(pyrimidin-2-yl)chroman-7-sulfonamide] | 6.15 | – | – | > 10 µM
20 | COCCc1cc(C(F)(F)F)ccc1[C@H]1CCOc2cc(S(=O)(=O)Nc3ncc(F)cn3)ccc21 (racemic) [Example 136, (R/S)—N-(5-fluoropyrimidin-2-yl)-4-(2-(2-methoxyethyl)-4-(trifluoromethyl)phenyl)chroman-7-sulfonamide] | 6.18 | 33% | – | –
21 | COCCc1cc(C(F)(F)F)ccc1[C@H]1CCOc2cc(S(=O)(=O)Nc3cccc(F)n3)ccc21 (racemic) [Example 137, (R/S)—N-(6-fluoropyridin-2-yl)-4-(2-(2-methoxyethyl)-4-(trifluoromethyl)phenyl)chroman-7-sulfonamide] | 7.92 | – | 5.44 | –
22 | COCCc1cc(C(F)(F)F)ccc1[C@H]1CCOc2cc(S(=O)(=O)Nc3ccncn3)ccc21 (racemic) [Example 138, (R/S)-4-(2-(2-methoxyethyl)-4-(trifluoromethyl)phenyl)-N-(pyrimidin-4-yl)chroman-7-sulfonamide] | 6.23 | – | – | > 10 µM
23 | COCCc1cc(C(F)(F)F)ccc1[C@H]1CCOc2cc(S(=O)(=O)Nc3cccnn3)ccc21 (racemic) [Example 139, (R/S)-4-(2-(2-methoxyethyl)-4-(trifluoromethyl)phenyl)-N-(pyridazin-3-yl)chroman-7-sulfonamide] | 7.48 | – | – | > 10 µM
24 | COCCCc1cc(C(F)(F)F)ccc1[C@H]1CCOc2cc(S(=O)(=O)Nc3ncc(F)cn3)ccc21 (racemic) [Example 142, (R/S)—N-(5-fluoropyrimidin-2-yl)-4-(2-(3-methoxypropyl)-4-(trifluoromethyl)phenyl)chroman-7-sulfonamide] | 6.75 | – | – | > 10 µM
25 | COCCCc1cc(C(F)(F)F)ccc1[C@H]1CCOc2cc(S(=O)(=O)Nc3ccncn3)ccc21 (racemic) [Example 143, (R/S)-4-(2-(3-methoxypropyl)-4-(trifluoromethyl)phenyl)-N-(pyrimidin-4-yl)chroman-7-sulfonamide] | 7.80 | – | 6.27 | –
26 | COCCCc1cc(C(F)(F)F)ccc1[C@H]1CCOc2cc(S(=O)(=O)Nc3cccnn3)ccc21 (racemic) [Example 144, (R/S)-4-(2-(3-methoxypropyl)-4-(trifluoromethyl)phenyl)-N-(pyridazin-3-yl)chroman-7-sulfonamide] | 7.07 | – | 5.57 | –
27 | COCCCc1cc(C(F)(F)F)ccc1[C@H]1CCOc2cc(S(=O)(=O)Nc3cccc(F)n3)ccc21 (racemic) [Example 145, (R/S)—N-(6-fluoropyridin-2-yl)-4-(2-(3-methoxypropyl)-4-(trifluoromethyl)phenyl)chroman-7-sulfonamide] | 7.72 | – | 5.62 | –
28 | COCCCCc1cc(C(F)(F)F)ccc1[C@H]1CCOc2cc(S(=O)(=O)Nc3ncc(F)cn3)ccc21 (racemic) [Example 148, (R/S)—N-(5-fluoropyrimidin-2-yl)-4-(2-(4-methoxybutyl)-4-(trifluoromethyl)phenyl)chroman-7-sulfonamide] | 6.76 | – | – | > 10 µM
29 | COCCCCc1cc(C(F)(F)F)ccc1[C@H]1CCOc2cc(S(=O)(=O)Nc3ccncn3)ccc21 (racemic) [Example 149, (R/S)-4-(2-(4-methoxybutyl)-4-(trifluoromethyl)phenyl)-N-(pyrimidin-4-yl)chroman-7-sulfonamide] | 7.68 | 58% | – | –
30 | COCCCCc1cc(C(F)(F)F)ccc1[C@H]1CCOc2cc(S(=O)(=O)Nc3cccnn3)ccc21 (racemic) [Example 150, (R/S)-4-(2-(4-methoxybutyl)-4-(trifluoromethyl)phenyl)-N-(pyridazin-3-yl)chroman-7-sulfonamide] | 7.51 | – | 5.85 | –
